Assay results reported in PubChem BioAssay (NCI).
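Five compound concentrations were applied to cells in 96-well plates for 48 hours; endpoints were derived by simple linear interpolation of the resulting dose-response curve. TGI: total growth inhibition.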 Where a SMILES comes first, the peptide text is derived from it. [ ]: non-standard residue; d: D form. The star is where a group is joined. X28 = COC1=CC(=O)N(C(=O)[C@@H](O*)C(C)C)[C@H]1Cc1ccccc1; Bn2Val = CC(C)[C@@H](C(=O)*)N(Cc1ccccc1)Cc1ccccc1; NMeV = CN[C@H](C(=O)O)C(C)C; dNMeA = CN[C@H](C)C(=O)O

Tests used:
Assay in all cases: NCI anticancer screen, dose series, 48 h
MDA-MB-435 = tested on: MDA-MB-435
SN12C renal = tested on: SN12C renal
SF-268 CNS = tested on: SF-268 CNS
LOX IMVI melanoma = tested on: LOX IMVI melanoma
UACC-62 melanoma = tested on: UACC-62 melanoma
HCC-2998 colon = tested on: HCC-2998 colon
OVCAR-8 ovarian = tested on: OVCAR-8 ovarian
OVCAR-4 ovarian = tested on: OVCAR-4 ovarian
UACC-257 melanoma = tested on: UACC-257 melanoma
HCT-15 colon = tested on: HCT-15 colon

SMILES | TGI (MDA-MB-435) [µM] | TGI (SN12C renal) [µM] | TGI (SF-268 CNS) [µM] | TGI (LOX IMVI melanoma) [µM] | TGI (UACC-62 melanoma) [µM] | TGI (HCC-2998 colon) [µM] | TGI (OVCAR-8 ovarian) [µM] | TGI (OVCAR-4 ovarian) [µM] | TGI (UACC-257 melanoma) [µM] | TGI (HCT-15 colon) [µM]
NC(=S)Nc1ccc2c(c1)oc1ccccc12 | > 100 | > 100 | > 100 | > 100 | > 100 | > 100 | > 100 | > 100 | > 100 | > 100
Oc1cc(Cl)cc2cc(Cl)cnc12 | > 100 | > 100 | > 100 | 13.1 | 7.81 | 65.9 | > 100 | > 100 | > 100 | 27.3
COC1=CC(=O)N(C(=O)[C@@H](OC(=O)[C@@H](C)N(C)C(=O)[C@@H]2CCCN2C(=O)[C@H](C(C)C)N(C)C(=O)[C@@H](NC(=O)[C@H](C(C)C)N(Cc2ccccc2)Cc2ccccc2)C(C)C)C(C)C)[C@H]1Cc1ccccc1 (Bn2Val-V[NMeV]P[dNMeA]-X28) | > 100 | > 100 | > 100 | > 100 | > 100 | > 100 | > 100 | > 100 | > 100 | > 100
COc1cc(S(=O)(=O)Nc2ccc(-c3csc(N4C(=O)C(Cl)C4c4cccc(Oc5ccccc5)c4)n3)cc2)ccc1Cl (stereo not given) | 39.7 | 30.2 | 28.3 | 4.89 | 53.4 | > 100 | > 100 | 18.1 | > 100 | > 100
CC(C)NCC(O)c1ccc(O)c2ncccc12 (stereo not given) | > 100 | > 100 | > 100 | > 100 | > 100 | > 100 | > 100 | > 100 | > 100 | > 100
CNC(=O)c1cc2nc3ccccc3c(=O)n2c2ccccc12 | > 10 | > 10 | > 10 | > 10 | > 10 | > 10 | > 10 | > 10 | > 10 | > 10
CCOC(=O)C1(C#N)C2(C#N)C(N)=NC(ON=C(C)C)(ON=C(C)C)C12C#N (stereo not given) | > 100 | > 100 | > 100 | > 100 | > 100 | > 100 | > 100 | > 100 | > 100 | > 100
N#C/C(=C/n1c(=S)[nH]c2ccccc21)C(N)=O | > 100 | > 100 | > 100 | > 100 | > 100 | > 100 | > 100 | > 100 | > 100 | > 100
C=C1C(=O)[C@]23C[C@H]1C[C@@H](O)[C@H]2[C@]1(COC3=O)[C@@H](OC(C)=O)CC[C@@](C)(COC(C)=O)[C@H]1C=O | > 50 | > 50 | 43.5 | > 50 | > 50 | > 50 | > 50 | > 50 | > 50 | > 50
COc1ccc(OC)c(NC2=NCCO2)c1 | > 100 | > 100 | > 100 | > 100 | > 100 | > 100 | > 100 | > 100 | > 100 | > 100
COc1cc(NS(C)(=O)=O)ccc1NCc1cnc2ccc3[nH]cccc3c12 | 43.8 | 67.4 | 55.3 | 63.4 | 35.8 | 35.4 | 75.7 | 65.7 | 32 | 58.4
Cc1ccc(/C(O)=C/c2nc3cccnc3[nH]c2=O)cc1 | > 100 | > 100 | > 100 | > 100 | > 100 | > 100 | > 100 | > 100 | > 100 | > 100
c1ccc(C(c2cccc3c2ccc2ccccc23)C(c2ccccc2)c2cccc3c2ccc2ccccc23)cc1 (stereo not given) | > 100 | > 100 | > 100 | > 100 | > 100 | > 100 | > 100 | > 100 | > 100 | > 100
CCCCC(=C=C(C)CO)C1CCCN1C(=O)OC(C)(C)C (stereo not given) | 35.8 | 31.5 | 33.5 | 30.4 | 26.9 | 20.3 | 37.3 | 39.3 | 32.7 | 39
